# Source: PubChem BioAssay (NCI)
#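 Briefly, cells in 96-well plates were exposed to five compound concentrations for 48 h, and endpoints were estimated by linear interpolation. TGI denotes the concentration required for complete inhibition of growth.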
# Assays:
# Experiment in all cases: NCI tumour cell line growth inhibition, 48 h
# SW-620 colon = tested on: SW-620 colon
# OVCAR-3 ovarian = tested on: OVCAR-3 ovarian
# UO-31 renal = tested on: UO-31 renal
# DMS 273 small cell lung = tested on: DMS 273 small cell lung
# DMS 114 small cell lung = tested on: DMS 114 small cell lung
# U251 CNS = tested on: U251 CNS
# LXFL 529 NSCLC = tested on: LXFL 529 NSCLC
# ACHN renal = tested on: ACHN renal
# RXF 393 renal = tested on: RXF 393 renal
# HT29 colon = tested on: HT29 colon
# IGROV1 ovarian = tested on: IGROV1 ovarian
# NCI-H460 lung = tested on: NCI-H460 lung
# SR leukemia = tested on: SR leukemia
# HCT-116 colon = tested on: HCT-116 colon
# SK-OV-3 ovarian = tested on: SK-OV-3 ovarian
# MOLT-4 leukemia = tested on: MOLT-4 leukemia
# KM12 colon = tested on: KM12 colon
# OVCAR-8 ovarian = tested on: OVCAR-8 ovarian
# COLO 205 colon = tested on: COLO 205 colon
# A549 NSCLC = tested on: A549 NSCLC
# SK-MEL-2 melanoma = tested on: SK-MEL-2 melanoma
# 786-0 renal = tested on: 786-0 renal
# HCT-15 colon = tested on: HCT-15 colon
# KM20L2 colon = tested on: KM20L2 colon
# HCC-2998 colon = tested on: HCC-2998 colon
# UACC-257 melanoma = tested on: UACC-257 melanoma
# RXF-631 renal = tested on: RXF-631 renal
# SNB-78 CNS = tested on: SNB-78 CNS
# M19-MEL melanoma = tested on: M19-MEL melanoma
# HOP-62 NSCLC = tested on: HOP-62 NSCLC
# EKVX NSCLC = tested on: EKVX NSCLC
# RPMI-8226 leukemia = tested on: RPMI-8226 leukemia
# SF-539 CNS = tested on: SF-539 CNS
# HL-60(TB) leukemia = tested on: HL-60(TB) leukemia
# UACC-62 melanoma = tested on: UACC-62 melanoma
# SNB-75 CNS = tested on: SNB-75 CNS
# XF 498 CNS = tested on: XF 498 CNS
# SK-MEL-28 melanoma = tested on: SK-MEL-28 melanoma
# SNB-19 CNS = tested on: SNB-19 CNS
# SF-295 CNS = tested on: SF-295 CNS
# SN12C renal = tested on: SN12C renal
# K-562 leukemia = tested on: K-562 leukemia
# OVCAR-4 ovarian = tested on: OVCAR-4 ovarian
# A498 renal = tested on: A498 renal
# DLD-1 colon = tested on: DLD-1 colon
# NCI-H23 lung = tested on: NCI-H23 lung
# CAKI-1 renal = tested on: CAKI-1 renal
# CCRF-CEM leukemia = tested on: CCRF-CEM leukemia
# HOP-92 NSCLC = tested on: HOP-92 NSCLC
# HOP-18 NSCLC = tested on: HOP-18 NSCLC
# MALME-3M melanoma = tested on: MALME-3M melanoma
# OVCAR-5 ovarian = tested on: OVCAR-5 ovarian
# SF-268 CNS = tested on: SF-268 CNS
# M14 melanoma = tested on: M14 melanoma
# SK-MEL-5 melanoma = tested on: SK-MEL-5 melanoma
# LOX IMVI melanoma = tested on: LOX IMVI melanoma
# TK-10 renal = tested on: TK-10 renal
# NCI-H522 lung = tested on: NCI-H522 lung
compound,measurement,setting,value
COc1ccc(-c2cc(=O)c3cc(C)c(C)c(C(=O)O)c3o2)cc1,TGI,SW-620 colon,> 100 µM
same,TGI,OVCAR-3 ovarian,> 100 µM
same,TGI,UO-31 renal,> 100 µM
same,TGI,DMS 273 small cell lung,> 100 µM
same,TGI,DMS 114 small cell lung,45.6 µM
same,TGI,U251 CNS,> 100 µM
same,TGI,LXFL 529 NSCLC,> 100 µM
same,TGI,ACHN renal,94.4 µM
same,TGI,RXF 393 renal,> 100 µM
same,TGI,HT29 colon,> 100 µM
same,TGI,IGROV1 ovarian,> 100 µM
same,TGI,NCI-H460 lung,> 100 µM
same,TGI,SR leukemia,> 100 µM
same,TGI,HCT-116 colon,> 100 µM
same,TGI,SK-OV-3 ovarian,> 100 µM
same,TGI,MOLT-4 leukemia,> 100 µM
same,TGI,KM12 colon,> 100 µM
same,TGI,OVCAR-8 ovarian,> 100 µM
same,TGI,COLO 205 colon,> 100 µM
same,TGI,A549 NSCLC,> 100 µM
same,TGI,SK-MEL-2 melanoma,> 100 µM
same,TGI,786-0 renal,> 100 µM
same,TGI,HCT-15 colon,> 100 µM
same,TGI,KM20L2 colon,> 100 µM
same,TGI,HCC-2998 colon,> 100 µM
same,TGI,UACC-257 melanoma,> 100 µM
same,TGI,RXF-631 renal,> 100 µM
same,TGI,SNB-78 CNS,> 100 µM
same,TGI,M19-MEL melanoma,> 100 µM
same,TGI,HOP-62 NSCLC,> 100 µM
same,TGI,EKVX NSCLC,> 100 µM
same,TGI,RPMI-8226 leukemia,> 100 µM
same,TGI,SF-539 CNS,> 100 µM
same,TGI,HL-60(TB) leukemia,> 100 µM
same,TGI,UACC-62 melanoma,30.7 µM
same,TGI,SNB-75 CNS,> 100 µM
same,TGI,XF 498 CNS,> 100 µM
same,TGI,SK-MEL-28 melanoma,> 100 µM
same,TGI,SNB-19 CNS,> 100 µM
same,TGI,SF-295 CNS,> 100 µM
same,TGI,SN12C renal,> 100 µM
same,TGI,K-562 leukemia,> 100 µM
same,TGI,OVCAR-4 ovarian,> 100 µM
same,TGI,A498 renal,> 100 µM
same,TGI,DLD-1 colon,> 100 µM
same,TGI,NCI-H23 lung,> 100 µM
same,TGI,CAKI-1 renal,> 100 µM
same,TGI,CCRF-CEM leukemia,> 100 µM
O=[N+]([O-])c1cc(I)cc(/C=N/NS(=O)(=O)c2ccc(Cl)cc2)c1O,TGI,SW-620 colon,82.4 µM
same,TGI,OVCAR-3 ovarian,36.1 µM
same,TGI,UO-31 renal,36.8 µM
same,TGI,HOP-92 NSCLC,37.6 µM
same,TGI,DMS 273 small cell lung,38.5 µM
same,TGI,HOP-18 NSCLC,45.5 µM
same,TGI,MALME-3M melanoma,48.9 µM
same,TGI,U251 CNS,40.3 µM
same,TGI,LXFL 529 NSCLC,37.2 µM
same,TGI,ACHN renal,51.4 µM
same,TGI,RXF 393 renal,45.4 µM
same,TGI,HT29 colon,48.6 µM
same,TGI,OVCAR-5 ovarian,71.6 µM
same,TGI,IGROV1 ovarian,45.1 µM
same,TGI,NCI-H460 lung,37.4 µM
same,TGI,SR leukemia,46.2 µM
same,TGI,HCT-116 colon,41.3 µM
same,TGI,SK-OV-3 ovarian,65 µM
same,TGI,SF-268 CNS,77.4 µM
same,TGI,MOLT-4 leukemia,51.5 µM
same,TGI,KM12 colon,34.6 µM
same,TGI,OVCAR-8 ovarian,37.6 µM
same,TGI,COLO 205 colon,33.1 µM
same,TGI,A549 NSCLC,> 100 µM
same,TGI,M14 melanoma,58.3 µM
same,TGI,SK-MEL-2 melanoma,42.7 µM
same,TGI,SK-MEL-5 melanoma,36.9 µM
same,TGI,786-0 renal,42.9 µM
same,TGI,LOX IMVI melanoma,36.5 µM
same,TGI,HCT-15 colon,38.7 µM
same,TGI,KM20L2 colon,> 100 µM
same,TGI,HCC-2998 colon,46.3 µM
same,TGI,UACC-257 melanoma,53.9 µM
same,TGI,RXF-631 renal,45.3 µM
same,TGI,SNB-78 CNS,70.9 µM
same,TGI,M19-MEL melanoma,56.9 µM
same,TGI,HOP-62 NSCLC,53.6 µM
same,TGI,EKVX NSCLC,83 µM
same,TGI,RPMI-8226 leukemia,59.7 µM
same,TGI,SF-539 CNS,51.5 µM
same,TGI,TK-10 renal,74.4 µM
same,TGI,HL-60(TB) leukemia,55.8 µM
same,TGI,UACC-62 melanoma,57.6 µM
same,TGI,SNB-75 CNS,61.2 µM
same,TGI,SK-MEL-28 melanoma,73.8 µM
same,TGI,NCI-H522 lung,33.2 µM
same,TGI,SNB-19 CNS,> 100 µM
same,TGI,SF-295 CNS,60.6 µM
same,TGI,SN12C renal,49.4 µM
same,TGI,K-562 leukemia,57.1 µM
same,TGI,OVCAR-4 ovarian,85.6 µM
same,TGI,A498 renal,58.8 µM
same,TGI,DLD-1 colon,59.4 µM
same,TGI,NCI-H23 lung,34.2 µM
same,TGI,CAKI-1 renal,54.9 µM
same,TGI,CCRF-CEM leukemia,58.5 µM
